These results are taken from ChEMBL document CHEMBL3232781, “Fluorinated benzophenone derivatives: balanced multipotent agents for Alzheimer's disease” (Eur J Med Chem, 2014).

For data set [1], the target named is Beta-secretase 1 (Homo sapiens) (UniProt P56817). Briefly: Inhibition of human recombinant BACE-1 using M-2420 as substrate up to 4 uM incubated for 1 hr prior to substrate addition measured after 15 mins by FRET assay.
Data set [2] deals with Acetylcholinesterase (Homo sapiens, UniProt P22303). The data set is described as follows: Inhibition of human recombinant AChE using acetylthiocholine iodide as substrate preincubated for 20 mins by Ellman's method.
Data set [3] concerns the target Beta-secretase 1 (Homo sapiens) (UniProt P56817). The data set is described as follows: Inhibition of human recombinant BACE-1 using M-2420 as substrate at 3 uM incubated for 1 hr prior to substrate addition measured after 15 mins by FRET assay relative to control.
The subject of data set [4] is SH-SY5Y. The data set is described as follows: Antioxidant activity in human SH-SY5Y cells assessed as inhibition of t-BuOOH-induced intracellular ROS formation at 3 to 5 uM after 30 mins by dihydroethidium-based spectrofluorometric analysis. In kind it is functional, cell-based.
The subject of data set [5] is SH-SY5Y. Briefly: Antioxidant activity in human SH-SY5Y cells assessed as inhibition of amyloid beta (25 to 35)-induced intracellular ROS formation at 3 to 5 uM after 3 hrs by dihydroethidium-based fluorescence microscopic analysis relative to control. In kind it is functional.
The test system of data set [6] is SH-SY5Y. Briefly: Neurotoxicity in human SH-SY5Y cells assessed as decrease in cell viability at 10 to 50 uM after 24 hrs by MTT assay. It is filed as toxicity, cell-based. On the technique in general: Tetrazolium assays rely on reduction of a dye to a coloured formazan, in cell work by metabolically active cells.
In data set [7] the target is Beta-secretase 1 (Homo sapiens) (UniProt P56817). Briefly: Inhibition of human recombinant BACE-1 using M-2420 as substrate at 5 uM incubated for 1 hr prior to substrate addition measured after 15 mins by FRET assay relative to control.
For data set [8] the target is unchanged. The data set is described as follows: Inhibition of human recombinant BACE-1 using M-2420 as substrate at 3.38 uM incubated for 1 hr prior to substrate addition measured after 15 mins by FRET assay relative to control.
Data set [9] concerns SH-SY5Y. Briefly: Antioxidant activity in human SH-SY5Y cells assessed as inhibition of t-BuOOH-induced intracellular ROS formation at 500 uM after 30 mins by dihydroethidium-based spectrofluorometric analysis relative to control. It is filed as functional. Particulars: 0.5 h.
In data set [10] the test system is SH-SY5Y. Briefly: Antioxidant activity in human SH-SY5Y cells assessed as inhibition of amyloid beta (25 to 35)-induced intracellular ROS formation at 500 uM after 3 hrs by dihydroethidium-based fluorescence microscopic analysis relative to control. It is filed as functional.

Calls of active or inactive are those of the source. The rule behind the calls is not given here.

Chain of Acetylcholinesterase (P22303 whole entry): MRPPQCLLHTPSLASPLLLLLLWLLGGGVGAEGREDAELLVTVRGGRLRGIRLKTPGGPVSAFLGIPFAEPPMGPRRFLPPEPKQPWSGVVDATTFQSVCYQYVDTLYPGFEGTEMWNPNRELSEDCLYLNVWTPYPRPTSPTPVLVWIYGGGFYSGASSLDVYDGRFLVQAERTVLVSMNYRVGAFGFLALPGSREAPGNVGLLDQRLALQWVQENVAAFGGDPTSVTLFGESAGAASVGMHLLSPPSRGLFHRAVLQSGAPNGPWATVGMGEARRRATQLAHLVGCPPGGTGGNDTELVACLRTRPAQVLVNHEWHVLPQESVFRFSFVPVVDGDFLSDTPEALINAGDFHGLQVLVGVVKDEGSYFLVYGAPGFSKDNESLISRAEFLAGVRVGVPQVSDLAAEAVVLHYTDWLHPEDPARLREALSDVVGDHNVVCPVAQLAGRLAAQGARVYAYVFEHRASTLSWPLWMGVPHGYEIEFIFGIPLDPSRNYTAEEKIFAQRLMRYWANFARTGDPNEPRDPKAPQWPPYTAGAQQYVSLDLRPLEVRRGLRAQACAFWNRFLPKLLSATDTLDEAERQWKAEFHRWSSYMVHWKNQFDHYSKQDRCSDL
Chain of Beta-secretase 1 (Homo sapiens) (P56817 whole entry): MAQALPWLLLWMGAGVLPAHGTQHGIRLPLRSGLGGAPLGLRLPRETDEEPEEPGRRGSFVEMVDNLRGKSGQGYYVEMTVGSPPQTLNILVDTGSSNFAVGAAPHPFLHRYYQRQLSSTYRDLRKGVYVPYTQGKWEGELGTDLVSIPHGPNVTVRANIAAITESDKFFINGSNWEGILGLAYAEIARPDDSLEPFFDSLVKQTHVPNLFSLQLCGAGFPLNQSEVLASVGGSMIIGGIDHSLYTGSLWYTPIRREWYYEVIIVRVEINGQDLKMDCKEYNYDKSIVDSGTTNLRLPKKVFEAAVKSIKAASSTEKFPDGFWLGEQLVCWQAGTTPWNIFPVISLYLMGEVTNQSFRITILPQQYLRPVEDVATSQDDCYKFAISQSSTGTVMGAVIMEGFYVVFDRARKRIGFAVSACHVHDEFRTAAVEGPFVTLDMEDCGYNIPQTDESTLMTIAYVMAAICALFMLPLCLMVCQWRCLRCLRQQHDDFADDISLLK

The inhibition is the relative decrease from the control value, in per cent. For `CN(Cc1ccc(C(=O)c2ccc(O)c(F)c2)cc1)Cc1cccc(O)c1`, the inhibition entry in data set [1] and in [2] was “inactive” throughout.

For the molecule `O=C(c1ccc(CN2CCC(O)CC2)cc1)c1ccc(O)c(F)c1`, the inhibition in data set [3] is 32.8%. Further, in [2], the inhibition result was “inactive”.

As usually defined, the IC50 is the concentration needed to halve the response being measured. Consider `CN(Cc1ccccc1)Cc1ccc(C(=O)c2ccc(O)c(F)c2)cc1`, for which the inhibition in data set [3] stood at 40.8%. In addition, the 50% inhibitory concentration (IC50) in data set [2] stood at 3.66 µM. In addition, the inhibition result in data set [4] is “Active”. Moreover, in data set [5], the Imax is on record as 30%. The Activity entry in [6] was “Toxic”.

`CN1CCN(Cc2ccc(C(=O)c3ccc(O)c(F)c3)cc2)CC1`: the inhibition entry in data set [1] and in data set [2] was “inactive” each time.

For the molecule `CN(C)CCN(C)Cc1ccc(C(=O)c2ccc(O)c(F)c2)cc1`, in data set [3], the inhibition was 13.5%. Moreover, in data set [2], the inhibition result was “inactive”.

Turning to `Cc1ccc(C(=O)c2ccc(O)c(F)c2)cc1`, in data set [3], the inhibition amounted to 35.4%. Moreover, the inhibition result in [2] was “inactive”.

For the molecule `COc1ccc(C(=O)c2ccc(CN(C)Cc3ccccc3)cc2)cc1OC`, in data set [7], the inhibition amounted to 20%.

Consider `O=C(c1ccc(CN2CCC(CCO)CC2)cc1)c1ccc(O)c(F)c1`, for which, in [3], the inhibition turned out to be 58.7%. The IC50 in data set [2] was 2.32 µM. Also, the inhibition entry in data set [4] is “Active”. Also, in data set [5], the Imax is reported as 30%. For the same molecule, in [6], the Activity entry is on record as “Non-toxic”.

In the case of `COc1ccc(C(=O)c2ccc(CN(C)Cc3ccccc3)cc2)cc1F`, the inhibition in [8] came out at 10.7%. The inhibition entry in data set [4] and in [5] was “inactive” in each case. Further, in data set [6], the Activity entry was “Non-toxic”.

Turning to `O=C(c1ccc(CN2CCN(Cc3ccccc3)CC2)cc1)c1ccc(O)c(F)c1`, the inhibition result in [1] and in data set [2] was “inactive” throughout.

As for `COc1ccc(C(=O)c2ccc(CN(C)Cc3ccccc3)cc2)cc1`, the inhibition result in [1] is “inactive”.

`O=C(c1ccc(CN2CCN(c3ccccc3)CC2)cc1)c1ccc(O)c(F)c1`: the inhibition result in data set [1] and in [2] was “inactive” each time.

As to `CN(CCO)Cc1ccc(C(=O)c2ccc(O)c(F)c2)cc1`, in [3], the inhibition was 46.7%. The inhibition result in data set [2] is “inactive”.

With `CN(Cc1ccc(C(=O)c2ccc(O)c(F)c2)cc1)C1CCCCC1`, in data set [3], the inhibition stood at 36.2%. Besides, the inhibition entry in data set [2] is “inactive”.

Turning to `CC(=O)N[C@@H](CS)C(=O)O` [ACETYLCYSTEINE], the inhibition at 500 µM in data set [9] and in data set [10] was 35% throughout.

Turning to `CN(Cc1ccccc1)Cc1ccc(C(=O)c2ccc(O)cc2)cc1`, the inhibition result in data set [1] is “inactive”.
